Values quoted from earlier work as cited in paper PMC12691659 (Antimicrobial Agents and Chemotherapy, 2025).

Tests used:
[1] = in vivo; cited from earlier work
P-glycoprotein (P-gp) = details: cited from earlier work
[2] = human, in vivo; cited from earlier work
[3] = in vivo, cited from earlier work
Excerpt: Its retrospective, uncontrolled design limits the ability to establish causal relationships. The adherence to co-prescribing treatments could not be verified. […] Overexposure definition was based on Cmin rather than AUC, because the latter is still not widely available in routine TDM.

[4] = human, in vivo; cited from earlier work; remark: listed apart in the source

CCCCC1=NC2(CCCC2)C(=O)N1Cc1ccc(-c2ccccc2-c2nnn[nH]2)cc1 [irbesartan]
Dose eliminated unchanged in the urine [1]: Up to 20%
Inhibition of the transport of digoxin, a known P-gp substrate (P-glycoprotein (P-gp)): inhibit the transport of digoxin
P-glycoprotein substrate status (P-glycoprotein (P-gp); renal efflux transporter): substrate of P-glycoprotein

CCCCCCCCCC(=O)N[C@@H](Cc1c[nH]c2ccccc12)C(=O)N[C@H](CC(N)=O)C(=O)N[C@@H](CC(=O)O)C(=O)N[C@@H]1C(=O)NCC(=O)N[C@@H](CCCN)C(=O)N[C@@H](CC(=O)O)C(=O)N[C@H](C)C(=O)N[C@@H](CC(=O)O)C(=O)NCC(=O)N[C@H](CO)C(=O)N[C@@H]([C@H](C)CC(=O)O)C(=O)N[C@@H](CC(=O)c2ccccc2N)C(=O)O[C@@H]1C [daptomycin]
Increase of AUC in morbidly obese subjects [2]: 60%
Increase of Cmax in morbidly obese subjects [2]: 60%
Dose excreted unchanged by the kidneys [1]: 78%
Cmin associated with an increased risk of CPK elevation ([3]; 6 mg/kg): > 24300 ng/mL
AUC associated with increased risk of adverse events [3]: > 939 µg·h/mL
Cmin associated with increased risk of adverse events [3]: > 24000 ng/mL
CLDAP, population final estimate [4]: 0.365 L/h
Q, population final estimate [4]: 0.752 L/h
V1, population final estimate [4]: 3.59 L
V2, population final estimate [4]: 4.71 L
γCL [4]: 0.193
γV1 [4]: 0.24
θ1 (CL, CLCR) [4]: 0.43
θ2 (CL, Sex) [4]: 0.232
θ3 (V1, Age) [4]: 0.263
θ4 (V1, WT) [4]: 0.603
θ6 (V1, Sex) [4]: 0.117
ωCL [4]: 0.196
ωQ [4]: 1.13
ωV1 [4]: 0.123
ωV2 [4]: 0.29

CCCc1nc2c(C)cc(-c3nc4ccccc4n3C)cc2n1Cc1ccc(-c2ccccc2C(=O)O)cc1 [telmisartan]
Inhibition of the transport of digoxin, a known P-gp substrate (P-glycoprotein (P-gp)): inhibit the transport of digoxin
